Results taken from patent US6914045B2, “Glycopeptide antibiotics” (Wyeth Holdings Corporation, priority 2001, dated 2005).
Values after ≈ are worked out from the molar mass of the structure shown.

Tests used:
Experiment in all cases: in vitro antibacterial evaluation, MIC by broth dilution
Assay type in all cases: cell-based
Enterococcus sp. = conditions: broth dilution, 18 hours at 35° C.
In short: (§1)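 Broth dilution per NCCLS M7-A2 in Mueller-Hinton II medium, inoculum 5×10^5 CFU/mL, antibiotic range 64-0.06 μg/mL. MIC taken as lowest concentration inhibiting growth; Gram-positive panel includes recent clinical isolates resistant to methicillin, penicillin and/or vancomycin.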

Escherichia coli = conditions: 18 hours at 35° C.
In short: as §1

Staphylococcus sp. = conditions: broth dilution, 18 hours at 35° C.
In short: as §1

Streptococcus sp. = conditions: broth dilution, 18 hours at 35° C.
In short: as §1

Structure (SMILES): CC(c1ccccc1)C1NC(=O)CNC(=O)C(CO)NC(=O)C(C(O)C2CNC(=N)N2C2OC(CO)C(O)C(O)C2O)NC(=O)C(C(O)C2CNC(=N)N2)NC(=O)C(Cc2ccc(OC3OC(CO)C(OC4OC(CO)C(O)C5OC(CC67CC8CC(CC(C8)C6)C7)OC45)C(O)C3O)cc2)NC1=O (stereo not shown) [Example 128]
- MIC Enterococcus avium (GC 4558) (Enterococcus sp.; Enterococcus avium (GC 4558)): 4 µg/mL (≈ 2.75 µM)
- MIC Enterococcus faecalis (ATCC 29212) (Enterococcus sp.; Enterococcus faecalis (ATCC 29212)): 4 µg/mL (≈ 2.75 µM)
- MIC Enterococcus faecalis (GC 2242) (Enterococcus sp.; Enterococcus faecalis (GC 2242)): 4 µg/mL (≈ 2.75 µM)
- MIC Enterococcus faecalis (GC 2691) (Enterococcus sp.; Enterococcus faecalis (GC 2691)): 4 µg/mL (≈ 2.75 µM)
- MIC Enterococcus faecalis (GC 3059) (Enterococcus sp.; Enterococcus faecalis (GC 3059)): 4 µg/mL (≈ 2.75 µM)
- MIC Enterococcus faecalis (GC 4552) (Enterococcus sp.; Enterococcus faecalis (GC 4552)): 4 µg/mL (≈ 2.75 µM)
- MIC Enterococcus faecalis (GC 4553) (Enterococcus sp.; Enterococcus faecalis (GC 4553)): 4 µg/mL (≈ 2.75 µM)
- MIC Enterococcus faecalis (GC 4554) (Enterococcus sp.; Enterococcus faecalis (GC 4554)): 4 µg/mL (≈ 2.75 µM)
- MIC Enterococcus faecalis (GC 6189) (Enterococcus sp.; Enterococcus faecalis (GC 6189)): 4 µg/mL (≈ 2.75 µM)
- MIC Enterococcus faecium (GC 2243) (Enterococcus sp.; Enterococcus faecium (GC 2243)): 4 µg/mL (≈ 2.75 µM)
- MIC Enterococcus faecium (GC 4556) (Enterococcus sp.; Enterococcus faecium (GC 4556)): 4 µg/mL (≈ 2.75 µM)
- MIC Enterococcus faecium (GC 4557) (Enterococcus sp.; Enterococcus faecium (GC 4557)): 4 µg/mL (≈ 2.75 µM)
- MIC Enterococcus faecalis (ATCC 29212) (Enterococcus sp.; strain ATCC 29212): 4 µg/mL (≈ 2.75 µM)
- MIC Enterococcus faecalis (GC 2242) (Enterococcus sp.; strain GC 2242): 4 µg/mL (≈ 2.75 µM)
- MIC Enterococcus faecium (GC 2243) (Enterococcus sp.; strain GC 2243): 4 µg/mL (≈ 2.75 µM)
- MIC Enterococcus faecalis (GC 2691) (Enterococcus sp.; strain GC 2691): 4 µg/mL (≈ 2.75 µM)
- MIC Enterococcus faecalis (GC 3059) (Enterococcus sp.; strain GC 3059): 4 µg/mL (≈ 2.75 µM)
- MIC Enterococcus faecalis (GC 4552) (Enterococcus sp.; strain GC 4552): 4 µg/mL (≈ 2.75 µM)
- MIC Enterococcus faecalis (GC 4553) (Enterococcus sp.; strain GC 4553): 4 µg/mL (≈ 2.75 µM)
- MIC Enterococcus faecalis (GC 4554) (Enterococcus sp.; strain GC 4554): 4 µg/mL (≈ 2.75 µM)
- MIC Enterococcus faecium (GC 4556) (Enterococcus sp.; strain GC 4556): 4 µg/mL (≈ 2.75 µM)
- MIC Enterococcus faecium (GC 4557) (Enterococcus sp.; strain GC 4557): 4 µg/mL (≈ 2.75 µM)
- MIC Enterococcus avium (GC 4558) (Enterococcus sp.; strain GC 4558): 4 µg/mL (≈ 2.75 µM)
- MIC Enterococcus faecalis (GC 6189) (Enterococcus sp.; strain GC 6189): 4 µg/mL (≈ 2.75 µM)
- MIC Escherichia coli (ATCC 25922) (Escherichia coli; strain ATCC 25922): 32 µg/mL (≈ 22 µM)
- MIC Escherichia coli (GC 4559) (Escherichia coli; strain GC 4559): 32 µg/mL (≈ 22 µM)
- MIC Escherichia coli (GC 4560) (Escherichia coli; strain GC 4560): 4 µg/mL (≈ 2.75 µM)
- MIC Staphylococcus aureus (ATCC 29213) (Staphylococcus sp.): 2 µg/mL (≈ 1.37 µM)
- MIC Staphylococcus aureus (GC 1131) (Staphylococcus sp.): 4 µg/mL (≈ 2.75 µM)
- MIC Staphylococcus aureus (GC 3051) (Staphylococcus sp.): 2 µg/mL (≈ 1.37 µM)
- MIC Staphylococcus aureus (GC 3053) (Staphylococcus sp.): 2 µg/mL (≈ 1.37 µM)
- MIC Staphylococcus aureus (GC 4541) (Staphylococcus sp.): 2 µg/mL (≈ 1.37 µM)
- MIC Staphylococcus aureus (GC 4542) (Staphylococcus sp.): 2 µg/mL (≈ 1.37 µM)
- MIC Staphylococcus aureus (GC 4544) (Staphylococcus sp.): 4 µg/mL (≈ 2.75 µM)
- MIC Staphylococcus aureus (GC 4545) (Staphylococcus sp.): 2 µg/mL (≈ 1.37 µM)
- MIC Staphylococcus aureus (GC 1131) (Staphylococcus sp.; inoculum 5×10^5 CFU/mL, strain GC 1131): 4 µg/mL (≈ 2.75 µM)
- MIC Staphylococcus aureus (ATCC 29213) (Staphylococcus sp.; strain ATCC 29213): 2 µg/mL (≈ 1.37 µM)
- MIC Staphylococcus aureus (GC 3051) (Staphylococcus sp.; strain GC 3051): 2 µg/mL (≈ 1.37 µM)
- MIC Staphylococcus aureus (GC 3053) (Staphylococcus sp.; strain GC 3053): 2 µg/mL (≈ 1.37 µM)
- MIC Staphylococcus aureus (GC 4541) (Staphylococcus sp.; strain GC 4541): 2 µg/mL (≈ 1.37 µM)
- MIC Staphylococcus aureus (GC 4542) (Staphylococcus sp.; strain GC 4542): 2 µg/mL (≈ 1.37 µM)
- MIC Staphylococcus aureus-SMITH (GC 4543) (Staphylococcus sp.; strain GC 4543): 2 µg/mL (≈ 1.37 µM)
- MIC Staphylococcus aureus (GC 4544) (Staphylococcus sp.; strain GC 4544): 4 µg/mL (≈ 2.75 µM)
- MIC Staphylococcus aureus (GC 4545) (Staphylococcus sp.; strain GC 4545): 2 µg/mL (≈ 1.37 µM)
- MIC Staphylococcus haemolyticus (GC 4546) (Staphylococcus sp.; strain GC 4546): 2 µg/mL (≈ 1.37 µM)
- MIC Coagulase Negative Staphylococcus (GC 4547) (Staphylococcus sp.; strain GC 4547): 4 µg/mL (≈ 2.75 µM)
- MIC Coagulase Negative Staphylococcus (GC 4548) (Staphylococcus sp.; strain GC 4548): 2 µg/mL (≈ 1.37 µM)
- MIC Coagulase Negative Staphylococcus (GC 4549) (Staphylococcus sp.; strain GC 4549): 2 µg/mL (≈ 1.37 µM)
- MIC Coagulase Negative Staphylococcus (GC 4551) (Staphylococcus sp.; strain GC 4551): 4 µg/mL (≈ 2.75 µM)
- MIC Coagulase Negative Staphylococcus (GC 6257) (Staphylococcus sp.; strain GC 6257): 2 µg/mL (≈ 1.37 µM)
- MIC Staphylococcus aureus-SMITH (GC 4543) (Staphylococcus sp.; strain SMITH GC 4543): 2 µg/mL (≈ 1.37 µM)
- MIC Streptococcus agalactiae (GC 4564) (Streptococcus sp.; Streptococcus agalactiae (GC 4564)): 0.25 µg/mL (≈ 0.172 µM)
- MIC Streptococcus pneumoniae (ATCC 6301) (Streptococcus sp.; Streptococcus pneumoniae (ATCC 6301)): 0.25 µg/mL (≈ 0.172 µM)
- MIC Streptococcus pneumoniae (GC 1894) (Streptococcus sp.; Streptococcus pneumoniae (GC 1894)): <0.06 µg/mL
- MIC Streptococcus pneumoniae (GC 4565) (Streptococcus sp.; Streptococcus pneumoniae (GC 4565)): 0.12 µg/mL (≈ 0.0824 µM)
- MIC Streptococcus pyogenes (GC 4563) (Streptococcus sp.; Streptococcus pyogenes (GC 4563)): 0.5 µg/mL (≈ 0.344 µM)
- MIC Streptococcus pneumoniae (ATCC 6301) (Streptococcus sp.; strain ATCC 6301): 0.25 µg/mL (≈ 0.172 µM)
- MIC Streptococcus pneumoniae (GC 1894) (Streptococcus sp.; strain GC 1894): <0.06 µg/mL
- MIC Streptococcus pyogenes (GC 4563) (Streptococcus sp.; strain GC 4563): 0.5 µg/mL (≈ 0.344 µM)
- MIC Streptococcus agalactiae (GC 4564) (Streptococcus sp.; strain GC 4564): 0.25 µg/mL (≈ 0.172 µM)
- MIC Streptococcus pneumoniae (GC 4565) (Streptococcus sp.; strain GC 4565): 0.12 µg/mL (≈ 0.0824 µM)
